Assay in all cases: stopped-flow CA inhibition assay
Holding throughout (type): biochemical

For one assay, the target named is T1, hCA I (Homo sapiens, UniProt P00915).
T1 construct: gene CA1; recombinant, obtained in-house
From the text: stopped-flow CA inhibition assay on hCA I

The next assay concerns the target T2, hCA IX (Homo sapiens, UniProt Q16790).
T2 construct: gene CA9; recombinant, obtained in-house
From the text:
stopped-flow CA inhibition assay on hCA IX

Another assay concerns the target T3, hCA XII (Homo sapiens, UniProt O43570).
T3 construct: gene CA12; recombinant, obtained in-house
From the text:
stopped-flow CA inhibition assay on hCA XII

The target in another assay is T4, hCA II (Homo sapiens, UniProt P00918).
T4 construct: gene CA2; recombinant, obtained in-house
From the text:
stopped-flow CA inhibition assay on hCA II

Read-outs that look alike come from different tables or passages of the source.

T1 sequence (P00915 2-261): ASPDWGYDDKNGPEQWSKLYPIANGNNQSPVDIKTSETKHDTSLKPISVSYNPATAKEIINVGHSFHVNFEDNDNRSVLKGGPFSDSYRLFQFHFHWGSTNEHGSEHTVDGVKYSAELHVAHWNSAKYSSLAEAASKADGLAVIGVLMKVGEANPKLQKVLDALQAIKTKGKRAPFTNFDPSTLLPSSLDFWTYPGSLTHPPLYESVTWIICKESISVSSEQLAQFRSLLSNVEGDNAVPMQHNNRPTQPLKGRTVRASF
T3 sequence (O43570 25-354): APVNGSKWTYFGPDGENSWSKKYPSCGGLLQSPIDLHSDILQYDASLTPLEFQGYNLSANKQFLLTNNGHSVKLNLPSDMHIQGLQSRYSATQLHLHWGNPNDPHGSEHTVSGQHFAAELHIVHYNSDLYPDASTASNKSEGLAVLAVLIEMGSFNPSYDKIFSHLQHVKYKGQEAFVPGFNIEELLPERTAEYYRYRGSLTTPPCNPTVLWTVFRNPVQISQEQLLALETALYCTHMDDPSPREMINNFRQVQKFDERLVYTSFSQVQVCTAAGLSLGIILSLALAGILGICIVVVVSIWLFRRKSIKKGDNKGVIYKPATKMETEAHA

As to `NS(=O)(=O)c1ccc(CCn2c(SCC(=O)c3ccccc3)nc3ccccc3c2=O)cc1` [compound 2, 4-(2-(4-Oxo-2-((2-oxo-2-phenylethyl)thio)quinazolin-3(4H)-yl)ethyl)benzenesulfonamide], the Ki – broadly, a dissociation constant, usually derived from enzyme kinetics or from competition with a known ligand – at hCA I is 593 nM; on hCA IX, 40.7 nM; at hCA XII, 13 nM.

With `NS(=O)(=O)c1ccc(CCn2c(SCC(=O)Nc3ccc(Br)cc3)nc3ccccc3c2=O)cc1` [compound 10, 10], the Ki came to 697 nM at hCA I, 64.9 nM at hCA IX and 61 nM at hCA XII.

In the case of `Cc1ccc(NC(=O)CSc2nc3ccccc3c(=O)n2CCc2ccc(S(N)(=O)=O)cc2)cc1` [compound 13, 13], the values for the Ki on hCA I, on hCA IX and at hCA XII were 878 nM, 37.4 nM and 45.2 nM, respectively.

In the case of `Cc1ccc(C(=O)CSc2nc3ccccc3c(=O)n2CCc2ccc(S(N)(=O)=O)cc2)cc1` [compound 6, 4-(2-(4-Oxo-2-((2-oxo-2-(p-tolyl)ethyl)thio)quinazolin-3(4H)-yl)ethyl)benzenesulfonamide], the Ki on hCA I came out at 471 nM; at hCA IX it was 25.1 nM; on hCA XII, 85.1 nM.

Turning to `NS(=O)(=O)c1ccc(CCn2c(SCC(=O)Nc3ccccc3)nc3ccccc3c2=O)cc1` [compound 9, 9], the Ki is 460 nM on hCA I, 27.3 nM at hCA IX and 38.4 nM on hCA XII.

As for `NS(=O)(=O)c1ccc(CCn2c(SCC(=O)NCc3ccc(F)cc3)nc3ccccc3c2=O)cc1` [compound 18, N-(4-fluorobenzyl)-2-((4-oxo-3-(4-sulfamoylphenethyl)-3,4-dihydroquinazolin-2-yl)thio)acetamide], the Ki at hCA I is 2050 nM; at hCA IX, 256 nM; at hCA XII, 113 nM.

Consider `CC(Sc1nc2ccccc2c(=O)n1CCc1ccc(S(N)(=O)=O)cc1)C(=O)c1ccccc1` (stereo not shown) [compound 7, 4-(2-(4-Oxo-2-((1-oxo-1-phenylpropan-2-yl)thio)quinazolin-3(4H)-yl)ethyl)benzenesulfonamide], for which the Ki came to 978 nM at hCA I, 63.2 nM on hCA IX and 76.8 nM on hCA XII.

As for `CC(Sc1nc2ccccc2c(=O)n1CCc1ccc(S(N)(=O)=O)cc1)C(=O)Nc1ccc(Cl)cc1` (stereo not shown) [compound 20, 20], the Ki at hCA I is 3630 nM; on hCA IX it was 18.6 nM; on hCA XII it was 66.7 nM.

Regarding `NS(=O)(=O)c1ccc(CCn2c(SCC(=O)c3ccc(Br)cc3)nc3ccccc3c2=O)cc1` [compound 3, 4-(2-(2-((2-(4-Bromophenyl)-2-oxoethyl)thio)-4-oxoquinazolin-3(4H)-yl)ethyl)benzenesulfonamide], the figures for the Ki at hCA I, on hCA IX and on hCA XII were 1450 nM, 75.2 nM and 69.6 nM, respectively.

Turning to `COc1ccc(NC(=O)CSc2nc3ccccc3c(=O)n2CCc2ccc(S(N)(=O)=O)cc2)cc1` [compound 14, 14], the figures for the Ki on hCA I, on hCA IX and on hCA XII were 2570 nM, 84 nM and 49.1 nM, respectively.

Consider `CCOc1ccc(NC(=O)CSc2nc3ccccc3c(=O)n2CCc2ccc(S(N)(=O)=O)cc2)cc1` [compound 15, 15], for which the Ki was found to be 3650 nM on hCA I, 35.9 nM on hCA IX and 59.7 nM on hCA XII.

As to `NS(=O)(=O)c1ccc(CCn2c(SCC(=O)Nc3ccc(Cl)cc3)nc3ccccc3c2=O)cc1` [compound 11, 11], the Ki on hCA II was determined as 92 nM; on hCA I it was 726 nM; on hCA IX, 66.8 nM; on hCA XII it was 31.6 nM.

With `NS(=O)(=O)c1ccc(CCn2c(SCC(=O)c3ccc(Cl)cc3)nc3ccccc3c2=O)cc1` [compound 4, 4-(2-(2-((2-(4-Chlorophenyl)-2-oxoethyl)thio)-4-oxoquinazolin-3(4H)-yl)ethyl)benzenesulfonamide], the Ki at hCA IX (mean of […] assays, errors ±[…]) came out at 8 nM; on hCA XII (mean of […] assays, errors ±[…]), 10.8 nM.

Consider `NS(=O)(=O)c1ccc(CCn2c(SCC(=O)Nc3ccc(F)cc3)nc3ccccc3c2=O)cc1` [compound 12, N-(4-fluorophenyl)-2-((4-oxo-3-(4-sulfamoylphenethyl)-3,4-dihydroquinazolin-2-yl)thio)acetamide], for which the Ki is 12.7 nM on hCA IX (mean of […] assays, errors ±[…]) and 8.7 nM on hCA XII.

On to `NC(=O)CSc1nc2ccccc2c(=O)n1CCc1ccc(S(N)(=O)=O)cc1` [compound 8, 8], for which the Ki at hCA IX (mean of […] assays, errors ±[…]) came out at 34.5 nM; on hCA XII (mean of […] assays, errors ±[…]), 2.4 nM.

For the compound `NS(=O)(=O)c1ccc(CCn2c(SCC(=O)c3ccc(F)cc3)nc3ccccc3c2=O)cc1` [compound 5, 4-(2-(2-((2-(4-Fluorophenyl)-2-oxoethyl)thio)-4-oxoquinazolin-3(4H)-yl)ethyl)benzenesulfonamide], the Ki at hCA I came out at 400 nM; on hCA IX (mean of […] assays, errors ±[…]), 16.5 nM; at hCA XII, 9.1 nM.

On to `COc1ccc(CNC(=O)CSc2nc3ccccc3c(=O)n2CCc2ccc(S(N)(=O)=O)cc2)cc1OC` [compound 19, 19], for which the inhibitory constant (Ki) on hCA I was 5470 nM; at hCA IX it was 145 nM; on hCA XII, 97.3 nM.

In the case of `COc1cc(NC(=O)CSc2nc3ccccc3c(=O)n2CCc2ccc(S(N)(=O)=O)cc2)cc(OC)c1OC` [compound 17, 17], the Ki was 2670 nM at hCA I, 100 nM on hCA IX and 16.9 nM on hCA XII.

As for `CC(=O)c1ccc(NC(=O)CSc2nc3ccccc3c(=O)n2CCc2ccc(S(N)(=O)=O)cc2)cc1` [compound 16, 16], the Ki is 1700 nM at hCA I, 24.1 nM on hCA IX and 22.5 nM on hCA XII.

Source of the values: paper PMC7144323, “S-substituted 2-mercaptoquinazolin-4(3H)-one and 4-ethylbenzensulfonamides act as potent and selective human carbonic anhydrase IX and XII inhibitors” (Journal of Enzyme Inhibition and Medicinal Chemistry, 2020).
